From ChEMBL document CHEMBL1157258, “Triterpenoids from Schisandra lancifolia with anti-HIV-1 activity” (J Nat Prod, 2006)
Values after ≈ are worked out from the molar mass of the structure shown.

Columns and labels:
[1] = test system: Human immunodeficiency virus 1; assay: Antiviral activity against HIV1 infected in human C8166 cells assessed as inhibition of viral-induced cytopathic effect; format: functional, organism-based; conditions: Human immunodeficiency virus 1, C8166
[2] = Cytotoxicity against human C8166 cells by MTT assay; format: cell-based

EC50 [1] [µg/mL]	SMILES	CC50 [2] [µg/mL]
16.6 (≈ 37.3 µM)	C[C@@H]1CCC(=O)O[C@@H]2C[C@@]3(C)[C@@H]4[C@@H](O)C[C@H]5C(C)(C)C(=O)CC[C@@]56C[C@@]46C[C@@H](O)[C@]3(C)[C@@H]12 [LANCIFODILACTONE H]	> 200
16.2 (≈ 33.1 µM)	C/C(=C/CC[C@@H](C)[C@H]1CC[C@@]2(C)[C@@H]3CC[C@@H](C(C)(C)O)[C@@]4(CCC(=O)O)C[C@@]34CC[C@]12C)C(=O)O [LANCIFOICACID A]	105 (≈ 215 µM)
10.3 (≈ 21.9 µM)	C=C(C)[C@@H]1CC[C@@H]2[C@]3(CC[C@]4(C)[C@@H]([C@H](C)CC/C=C(/C)C(=O)O)CC[C@@]24C)C[C@]13CCC(=O)O [NIGRANOIC ACID]	88 (≈ 187 µM)
	Cc1cn([C@H]2C[C@H](N=[N+]=[N-])[C@@H](CO)O2)c(=O)[nH]c1=O [ZIDOVUDINE]	> 200
